Experiments:
[1] = system: cattle ticks (Boophilus microplus) strane Parhurst, SP-resistant; assay: Boophilus microplus dip test (BOOPMI Dip); format: in vivo; details: 100 ppm, egg deposition after 7 days
Source text: Boophilus microplus—Diptest (BOOPMI Dip)
Test animal: cattle ticks (Boophilus microplus) strane Parhurst, SP-resistant
(§1) Solvent: dimethyl sulfoxide
This compound solution is pipetted into tubes. 8-10 engorged, adult, female cattle ticks (Boophilus microplus) are placed in perforated tubes. These tubes are immersed in the aqueous compound solution until the ticks are completely moistened. After the liquid has drained off, the ticks are transferred to a filter paper in a plastic tray and stored in a climate chamber.
(§2) After 7 days egg deposition of fertile eggs is monitored. Eggs where fertility is not visible are stored in a climate chamber till hatching after about 42 days. An efficacy of 100% means all eggs are infertile; 0% means all eggs are fertile.

[2] = system: adult engorged female ticks (Boophilus microplus); assay: Boophilus microplus injection test (BOOPMI Inj); format: in vivo; details: 20 μg/animal, egg deposition after 7 days
Procedure: Boophilus microplus—Injectiontest (BOOPMI Inj)
as §1
Five adult engorged female ticks (Boophilus microplus) are injected with 1 μl compound solution into the abdomen. The ticks are transferred into replica plates and incubated in a climate chamber.
as §2

[3] = system: mustard beetle larvae (Phaedon cochleariae); assay: Phaedon cochleariae spray test (cabbage leaves); details: in Brassica oleracea, 168 h, read-out: mortality in %
[4] = logP determination by HPLC on reversed-phase column (C18), EEC Directive 79/831 Annex V.A8; format: physicochemical; details: reversed-phase C18, acetonitrile/water with formic acid
[5] = system: green peach aphid (Myzus persicae); assay: Myzus persicae spray test (Chinese cabbage leaf disks); format: in vivo; details: Myzus persicae, foliar, 144 h, read-out: mortality in %
Procedure: Myzus persicae—Spray Test
(§3) Solvent: 78.0 parts by weight acetone
(§4) • 1.5 parts by weight dimethylformamide Emulsifier: alkylarylpolyglycol ether
Chinese cabbage (Brassica pekinensis) leaf disks infected with all instars of the green peach aphid (Myzus persicae), are sprayed with a preparation of the active ingredient of the desired concentration.
(§5) After 6 days mortality in % is determined.

[6] = system: mustard beetle larvae (Phaedon cochleariae); assay: Phaedon cochleariae spray test (Chinese cabbage leaf disks); format: in vivo; details: foliar, 168 h, read-out: mortality in %
Source text: Phaedon cochleariae—Spray Test
Solvent: 78.0 parts by weight of acetone
• 1.5 parts by weight of dimethylformamide Emulsifier: alkylarylpolyglycol ether
Chinese cabbage (Brassica pekinensis) leaf disks are sprayed with a preparation of the active ingredient of the desired concentration.

[7] = system: Tick nymphs (Amblyomma hebraeum); assay: Amblyomma hebraeum test (AMBYHE); format: in vivo; details: Amblyomma hebraeum, 1008 h, read-out: mortality in %
Procedure: Amblyomma hebraeum—Test (AMBYHE)
as §1
Tick nymphs (Amblyomma hebraeum) are placed in perforated plastic beakers and immersed in the aqueous compound solution for one minute. Ticks are transferred to a filter paper in a petridish and incubated in a climate chamber.

[8] = system: larvae of the Australian sheep blowfly (Lucilia cuprina); assay: Lucilia cuprina test (LUCICU); format: in vivo; details: Lucilia cuprina, 48 h, read-out: mortality in %
Procedure: Lucilia cuprina—Test (LUCICU)
as §1
10 mg active compound are dissolved in 0.5 ml Dimethylsulfoxid. Serial dilutions are made to obtain the desired rates.
Approximately 20 […] instar larvae of the Australian sheep blowfly (Lucilia cuprina) are transferred into a test tube containing minced horse meat and compound solution of the desired concentration.

[9] = system: adult unfed cat fleas (Ctenocephalides felis); assay: Ctenocephalides felis oral test (CTECFE); format: in vivo; details: 48 h, read-out: mortality in %
Procedure: Ctenocephalides felis—Oral Test (CTECFE)
as §1
Approximately 20 adult unfed cat fleas (Ctenocephalides felis) are placed in flea chambers. The blood chamber, sealed with parafilm on the bottom, are filled with cattle blood supplied with compound solution and placed on the gauze covered top of the flea chamber, so that the fleas are able to suck the blood. The blood chamber is heated to 37° C. whereas the flea chamber is kept at room temperature.

[10] = system: two-spotted spider mite (Tetranychus urticae); assay: Tetranychus urticae spray test; OP-resistant (bean plants); format: in vivo; details: Tetranychus urticae, 168 h, read-out: mortality in %
[11] = system: two spotted spidermite (Tetranychus urticae); assay: Tetranychus urticae spray test OP-resistant (French bean leaf disks); format: in vivo; details: Tetranychus urticae, foliar, 144 h, read-out: mortality in %
Procedure: Tetranychus urticae—Spray Test OP-Resistant
as §3, §4
French bean (Phaseolus vulgaris) leaf disks which are heavily infested with all stages of the two spotted spidermite (Tetranychus urticae) are sprayed with a preparation of the active ingredient of the desired concentration.
as §5

[12] = system: fall armyworm larvae (Spodoptera frugiperda); assay: Spodoptera frugiperda spray test (maize leaf sections); format: in vivo; details: Spodoptera frugiperda, 168 h, read-out: mortality in %
Source text: Spodoptera frugiperda—Spray Test
as §3, §4
Maize (Zea mays) leaf sections are sprayed with a preparation of the active ingredient of the desired concentration. Once dry, the leaf sections are infested with fall armyworm larvae (Spodoptera frugiperda).

[13] = system: adult house flies (Musca domestica); assay: Musca domestica test (MUSCDO); format: in vivo; details: Musca domestica, 48 h, read-out: mortality in %
Source text: Musca domestica—Test (MUSCDO)
as §1
10 adult house flies (Musca domestica) are transferred into a container, containing a sponge soaked with a mixture of sugar solution and compound solution of the desired concentration.

Question: Which results are given for `CSc1c(C(F)(F)C(F)(F)F)nn(C)c1-n1cc(-c2ccc(Cl)c(C(=O)NC3(C#N)CC3)c2)cn1` [Example I-02, 2-chloro-N-(1-cyanocyclopropyl)-5-[2′-methyl-4′-(methylsulfanyl)-5′-(pentafluoroethyl)-2′H-1,3′-bipyrazol-4-yl]benzamide]?
Answer: efficacy (infertile eggs) [1]: 100%; efficacy (infertile eggs) [2]: 100%; mortality at 4 ppm [3]: 100%; logP [4]: 3.56; chromatographic logP ([4]; reversed-phase C18 HPLC column): 3.58; mortality at 100 g/ha [5]: 100%; mortality at 100 g/ha [6]: 100%; mortality at 100 ppm [7]: 100%; mortality at 100 ppm [8]: 100%; mortality at 100 ppm [9]: 100%; mortality at 4 ppm [10]: 100%; mortality at 100 g/ha [11]: 100%; mortality at 100 g/ha [12]: 100%; mortality at 100 ppm [13]: 90%
